Reference: patent US20090062294A1, “HETEROARYL-SUBSTITUTED UREA MODULATORS OF FATTY ACID AMIDE HYDROLASE” (priority 2007, published 2009)

System: mechanical (tactile) allodynia in the left hind paw
Test: Assay Method 3: Rat Mild Thermal Injury Model (MTI), mechanical allodynia
Type: in vivo, Sprague-Dawley rats
Conditions: 10 mg/Kg p.o.; 0.5 h after administration; mean +/- S.E.M.
From the text: Assay Method 3—Rat Mild Thermal Injury Model (MTI)
Pathogen-free, male albino Sprague-Dawley rats were purchased from Harlan Industries (San Diego, Calif.) and maintained on a 12-h light/dark cycle (lights on at 9:00 AM and off at 9:00 PM) in a climate-controlled room. Food and water were available ad libitum up to the time of the testing.
Under isoflurane/oxygen anesthesia, a first-degree burn injury (erythema without blistering) was produced as follows: the plantar surface of the rat's left hind paw was placed on water-dampened 56° C. hotplate for 20 seconds and steady contact was maintained by applying an 84 g weight to the dorsum (after Nozaki-Taguchi & Yaksh, Neurosci. Lett. 1998, 254, 25-28).
Mild thermal injury results in mechanical allodynia in the left hind paw. Mechanical (tactile) allodynia was assessed by determining the median threshold at which the affected paw was withdrawn from graded stimuli (von Frey filaments ranging from 0.41 to 15.8 g) applied perpendicularly with sufficient force to bend slightly and held for 2-3 seconds against the proximal half of the third and fourth toe surfaces through wire-mesh observation cages. Paw flinching during or immediately following the removal of the stimulus was considered a positive response. A paw withdrawal threshold (PWT) was determined by sequentially increasing and decreasing the stimulus strength and analyzing withdrawal data using an adaptation of the Dixon up-down method, as described (Chaplan et al., J. Neurosci. 1994, 53, 55-63). Rats were included in the study only if their baseline PWT was 3.1623 g or lower (4.5 logarithmically).
Rats were tested for pre-injury thresholds prior to mild thermal injury and again for baseline thresholds after development of mechanical allodynia. Immediately after baseline measurement, test compound or vehicle was administered orally and the measurement was repeated at 0.5 h after administration. The tactile thresholds (log value) were converted to percent of a maximum possible effect ( %MPE): % MPE=[Threshold(t)−Threshold(baseline)]*100/[Threshold(pre)−Threshold(baseline)], where t=post-treatment time. Data were expressed as mean±standard error of the mean (S.E.M.). Statistical analysis was performed using two-way ANOVA with repeated measures with a significance level of p<0.05.
Results for compounds tested in this assay are presented in Table 2, as an average of results obtained. Compounds were tested in free base, hydrochloride salt, and/or trifluoroacetic acid salt forms.

SMILES | % MPE
O=C(Nc1noc2ccccc12)N1CCN(Cc2cccc(Oc3ccc(C(F)(F)F)cc3)c2)CC1 [Example 109, N-1,2-Benzisoxazol-3-yl-4-{3-[4-(trifluoromethyl)phenoxy]benzyl}-piperazine-1-carboxamide] | 0%
O=C(Nc1noc2cc(F)ccc12)N1CCN(Cc2cccc(Oc3ccc(Cl)cc3)c2)CC1 [Example 245, 4-[3-(4-Chloro-phenoxy)-benzyl]-piperazine-1-carboxylic acid (6-fluoro-benzo[d]isoxazol-3-yl)-amide] | 36 +/− 10%
